Target: T1, human PAH with the R408W mutation (Homo sapiens, UniProt P00439, R408W)
T1 construct: expressed in transfected cells
T1 sequence (P00439 1-452 R408W): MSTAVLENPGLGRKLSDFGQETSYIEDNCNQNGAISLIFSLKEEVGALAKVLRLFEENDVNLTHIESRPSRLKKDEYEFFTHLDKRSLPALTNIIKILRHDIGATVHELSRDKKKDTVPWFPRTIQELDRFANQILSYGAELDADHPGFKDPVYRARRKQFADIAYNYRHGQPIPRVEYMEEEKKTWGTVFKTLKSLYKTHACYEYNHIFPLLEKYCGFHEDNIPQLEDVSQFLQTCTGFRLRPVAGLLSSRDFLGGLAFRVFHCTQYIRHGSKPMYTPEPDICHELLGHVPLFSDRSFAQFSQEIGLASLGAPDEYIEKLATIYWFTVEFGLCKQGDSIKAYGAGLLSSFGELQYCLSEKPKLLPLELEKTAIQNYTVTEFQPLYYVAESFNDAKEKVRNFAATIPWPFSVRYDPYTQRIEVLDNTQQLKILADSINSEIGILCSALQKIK
Assay: Cell Based Phenylalanine Flux Assay;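 note: after compound treatment, cells received sepiapterin plus isotope-labelled Phenylalanine for 4 hours, then labelled Tyrosine in the medium was quantified, 10-point 2-fold dilution series run in duplicate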
Conditions: A375 cells expressing R408W PAH; 24 hrs with compound, then 20 µM sepiapterin and 800 µM 13C9,15N-Phenylalanine for 4 hours; 13C-Tyrosine by LC-MS; average where tested multiple times; read-out: AC50

| Compound | AC50 [µM] |
| --- | --- |
| N#Cc1ncoc1C(=O)N1CCc2[nH]cnc2[C@@H]1c1nn2ccccc2c1Br (single isomer, unassigned) | 1 to 5 |
| O=C(c1nnc(-c2ncccn2)o1)N1CCc2[nH]cnc2C1c1cc2cccc(F)n2n1 (stereo not drawn) | 1 to 5 |

Same assay, conditions: A375 cells expressing human PAH R408W; 24 hrs compound incubation; 13C-Tyrosine by LC-MS; average where tested multiple times; read-out: AC50

| AC50 [µM] | Compound |
| --- | --- |
| 1 to 5 | O=C(c1oc(-c2ccccn2)nc1C1CC1)N1CCc2[nH]cnc2[C@@H]1c1cc2c(C(F)(F)F)cccn2n1 [Example 2125, (R)-(4-cyclopropyl-2-(pyridin-2-yl)oxazol-5-yl)(4-(4-(trifluoromethyl)pyrazolo[1,5-a]pyridin-2-yl)-1,4,6,7-tetrahydro-5H-imidazo[4,5-c]pyridin-5-yl)methanone] |
| 1 to 5 | CC(C)(O)c1nnc(C(=O)N2CCc3[nH]cnc3[C@H]2c2cc3c(Cl)cccn3n2)o1 [Example 2378, (S)-(4-(4-chloropyrazolo[1,5-a]pyridin-2-yl)-6,7-dihydro-1H-imidazo[4,5-c]pyridin-5(4H)-yl)(5-(2-hydroxypropan-2-yl)-1,3,4-oxadiazol-2-yl)methanone] |
| < 0.5 | FC(F)(F)Oc1cccn2nc([C@@H]3c4nc[nH]c4CCN3c3nnc(C4CC4)o3)cc12 [Example 2314, (S)-2-cyclopropyl-5-(4-(4-(trifluoromethoxy)pyrazolo[1,5-a]pyridin-2-yl)-1,4,6,7-tetrahydro-5H-imidazo[4,5-c]pyridin-5-yl)-1,3,4-oxadiazole] |
| 0.5 to 1 | Cc1cccn2nc([C@@H]3c4nc[nH]c4CCN3C(=O)c3nnc(C4CC4)s3)cc12 [Example 1997, (S)-(5-cyclopropyl-1,3,4-thiadiazol-2-yl)(4-(4-methylpyrazolo[1,5-a]pyridin-2-yl)-1,4,6,7-tetrahydro-5H-imidazo[4,5-c]pyridin-5-yl)methanone] |

Same assay, conditions: A375 cells expressing human R408W PAH; 24 hrs compound incubation; 13C-Tyrosine by LC-MS; average where tested multiple times; read-out: AC50

| AC50 [µM] | Compound |
| --- | --- |
| > 5 | Cc1cccn2nc([C@H]3c4nc[nH]c4CCN3c3ncc(C(F)(F)F)cn3)cc12 [Example 1755, (R)-4-(4-methylpyrazolo[1,5-a]pyridin-2-yl)-5-(5-(trifluoromethyl)pyrimidin-2-yl)-4,5,6,7-tetrahydro-1H-imidazo[4,5-c]pyridine] |
| 0.5 to 1 | COCc1ccc2c(C(=O)N3CCc4[nH]cnc4[C@H]3c3cc4c(C(F)(F)F)cccn4n3)cnn2c1 [Example 1548, (S)-(6-(methoxymethyl)pyrazolo[1,5-a]pyridin-3-yl)(4-(4-(trifluoromethyl)pyrazolo[1,5-a]pyridin-2-yl)-6,7-dihydro-1H-imidazo[4,5-c]pyridin-5(4H)-yl)methanone] |

The remaining lines, values behind:

| Compound | AC50 [µM] |
| --- | --- |
| Cc1nn(C)cc1-c1nnc(C(=O)N2CCc3[nH]cnc3[C@@H]2c2cc3cccc(C(F)F)n3n2)o1 [Example 1583, (R)-(4-(7-(difluoromethyl)pyrazolo[1,5-a]pyridin-2-yl)-6,7-dihydro-1H-imidazo[4,5-c]pyridin-5(4H)-yl)(5-(1,3-dimethyl-1H-pyrazol-4-yl)-1,3,4-oxadiazol-2-yl)methanone] | > 5 |
| CC(C)(O)c1nc(Cl)c(C(=O)N2CCc3[nH]cnc3[C@H]2c2cc3c(F)cccn3n2)o1 [Example 756, (S)-(4-chloro-2-(2-hydroxypropan-2-yl)oxazol-5-yl)(4-(4-fluoropyrazolo[1,5-a]pyridin-2-yl)-6,7-dihydro-1H-imidazo[4,5-c]pyridin-5(4H)-yl)methanone] | < 0.5 |
| CC(C)(O)c1nc(Br)c(C(=O)N2CCc3[nH]cnc3[C@H]2c2cc3c(Cl)cccn3n2)o1 [Example 722, (S)-(4-bromo-2-(2-hydroxypropan-2-yl)oxazol-5-yl)(4-(4-chloropyrazolo[1,5-a]pyridin-2-yl)-6,7-dihydro-1H-imidazo[4,5-c]pyridin-5(4H)-yl)methanone] | < 0.5 |
| O=C(c1nnc(-c2cccnc2)o1)N1CCc2[nH]cnc2[C@H]1c1cc2c(Cl)cccn2n1 [Example 1292, (S)-(4-(4-chloropyrazolo[1,5-a]pyridin-2-yl)-6,7-dihydro-1H-imidazo[4,5-c]pyridin-5(4H)-yl)(5-(pyridin-3-yl)-1,3,4-oxadiazol-2-yl)methanone] | < 0.5 |

From patent US20230365592A1 (Agios Pharmaceuticals, Inc., priority 2022, published 2023)
